Broadly, the IC50 is the concentration that inhibits the measured activity by half.

The text below walks through data of BindingDB's records for doi:10.1021/jm00101a007 (Centre De Recherche De Vitry-Alfortville, 1992).

The target of one assay is Leukotriene B4 receptor (Cavia porcellus). Kind of assay: Inhibition of [3H]LTB4 binding to Leukotriene B4 receptor in the guinea pig spleen membranes.
For `O=C(O)CCCCCOc1cc(-c2ccc(Cl)cc2)c2ccccc2n1`, the concentration for half-maximal inhibition (IC50) worked out at 30 nM. Still for that read-out and setting: the result for `CC(C)(CCCCOc1cc(-c2ccc(C(F)(F)F)cc2)c2ccccc2n1)C(=O)O` reads 300 nM; that for `CC(C)(CCCCOc1cc(-c2ccccc2)c2ccccc2n1)c1nnn[nH]1`, 400 nM; that for `O=C(O)CCCCCCOc1cc(-c2ccccc2)c2ccccc2n1`, 1800 nM. `Cc1ccc(-c2cc(OCCCCC(C)(C)C(=O)O)nc3ccccc23)cc1` came in with an IC50 of 30 nM. `O=C(O)CCCCCOc1cc(-c2ccccc2)c2ccccc2n1` gave a half-maximal inhibitory concentration (IC50) of 700 nM. Compared with the last molecule, the IC50 is about 23-fold higher. Same read-out and setting: the result for `CC(CCCCOc1cc(-c2ccccc2)c2ccccc2n1)C(=O)O` (stereo unspecified) reads 550 nM; that for `CC(C)(CCCCOc1cc(-c2ccc(Cl)cc2)c2ccccc2n1)c1nnn[nH]1`, 30 nM. The molecule `CC(C)(CCCCOc1cc(-c2cccc(Cl)c2)c2ccccc2n1)C(=O)O` returned an IC50 of 1100 nM. `COc1cccc(-c2cc(OCCCCC(C)(C)C(=O)O)nc3ccccc23)c1` displayed an IC50 of 300 nM. Still for that read-out and setting: to `CC(C)(CCCCOc1cc(-c2ccc(Cl)cc2)c2ccccc2n1)C(=O)O` belongs 15 nM; to `CC(C)(CCCCOc1cc(-c2ccccc2)c2cc(Cl)ccc2n1)C(=O)O`, 2500 nM.

As for `CC(C)(CCCCOc1cc(-c2ccc(N)cc2)c2ccccc2n1)C(=O)O`, the IC50 came out at 40 nM. Take `c1ccc(-c2cc(OCCCCCc3nnn[nH]3)nc3ccccc23)cc1`: the IC50 amounted to 500 nM. Still for that read-out and setting: to `CC(C)(CCCCOc1cc(-c2ccc([N+](=O)[O-])cc2)c2ccccc2n1)C(=O)O` belongs 150 nM.

For a further assay the target is unchanged. Described as above. The source holds these as a separate data set.
As to `CC(C)(CCCCOc1cc(-c2ccccc2)c2ccccc2n1)C(=O)O`, the concentration for half-maximal inhibition (IC50) was 183 nM.
